EC50 data for 17 compounds are collected here from patent US11505558B1, “Antiviral heterocyclic compounds” (Enanta Pharmaceuticals, Inc., priority 2019, dated 2022).

In general, EC50 refers to the concentration giving half of the maximal effect.

Some results are limits rather than exact numbers.

For assay [1], the system named is genotype A, "Long" strain RSV. The experiment in a line: RSV-A assay (CPE, ATPlite readout in Hep-2 cells). It counts as cell-based. The note with it: human respiratory syncytial virus, HEp-2, Hep-2 cells, genotype A "Long" strain RSV, MOI 0.1; read-out: Human RSV-A (“Long” strain) EC50. A digest of the protocol:
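Protection from RSV-induced cytopathic effect, measured as ATPlite luminescence after 5 days, gave EC50 values. Assay used genotype A Long strain at MOI 0.1 on Hep-2 cells seeded at 8,000/well in DMEM growth media with 10% FBS; compounds tested as 2-fold dilutions in duplicate.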

The test system of assay [2] is recombinant HMPV CAN97-83 (MPV-GFP1). Put plainly: HMPV antiviral assay (MPV-GFP1 eGFP fluorescence in Vero E6 cells). The note with it: human metapneumovirus, Vero C1008, 120 h, read-out: HMPV EC50. The class given is cell-based. A digest of the protocol:
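Vero E6 cells in serum-free OptiMEM with 0.5 μg/mL TPCK-trypsin infected with eGFP-expressing HMPV CAN97-83 (MPV-GFP1) at MOI 0.05. 8-point […] ½-step dilutions from 8 or 2 μM, 0.5% DMSO, 5 days at 32 °C. eGFP fluorescence normalized to infected untreated wells; EC50 from four-parameter logistic fit.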

Turning to `C[C@]1(C(=O)NCCOC(N)=O)COc2c1cc([C@@](O)(CNC(=O)c1cc(OC3CC3)c3ncccc3c1)C(F)(F)F)nc2-c1ccc(F)cc1` [Example 460], the EC50 is under 200 nM in assay [1] and over 500 nM in assay [2].
For `C[C@]1(C(=O)NCCCN)COc2c1cc([C@@](O)(CNC(=O)c1cc(OC3CC3)c3ncccc3c1)C(F)(F)F)nc2-c1ccc(F)cc1` [Example 464], in that order: under 200 nM and over 500 nM.
Take `C[C@]1(C(=O)NCCO)COc2c1cc([C@@](O)(CNC(=O)c1cc(OC3CC3)c3ncccc3c1)C(F)(F)F)nc2-c1ccc(F)cc1` [Example 465]: the concentration for a half-maximal effect (EC50) in assay [1] is under 200 nM; in assay [2] it was under 500 nM.
`C[C@]1(C(=O)N[C@H]2C[C@@H](O)C2)COc2c1cc([C@@](O)(CNC(=O)c1cc(OC3CC3)c3ncccc3c1)C(F)(F)F)nc2-c1ccc(F)cc1` [Example 466]: the concentration giving a half-maximal response (EC50) in assay [1] is under 200 nM; in assay [2], under 500 nM.
Regarding `C[C@]1(C(=O)NC2CC(O)C2)COc2c1cc([C@@](O)(CNC(=O)c1cc(OC3CC3)c3ncccc3c1)C(F)(F)F)nc2-c1ccc(F)cc1` (stereo partly shown) [Example 467], the EC50 in assay [1] was under 200 nM; in assay [2] it was under 500 nM.
With `CNC(=O)CNC(=O)[C@@]1(C)COc2c1cc([C@@](O)(CNC(=O)c1cc(OC3CC3)c3ncccc3c1)C(F)(F)F)nc2-c1ccc(F)cc1` [Example 473], the concentration for a half-maximal effect (EC50) in assay [1] was under 200 nM; in assay [2], over 500 nM.
The corresponding values for `C[C@]1(C(=O)NCc2ccco2)COc2c1cc([C@@](O)(CNC(=O)c1cc(OC3CC3)c3ncccc3c1)C(F)(F)F)nc2-c1ccc(F)cc1` [Example 475] are under 200 nM and under 500 nM.
With `C[C@]1(C(=O)NCCC(N)=O)COc2c1cc([C@@](O)(CNC(=O)c1cc(OC3CC3)c3ncccc3c1)C(F)(F)F)nc2-c1ccc(F)cc1` [Example 477], the EC50 in assay [1] is under 200 nM; in assay [2], over 500 nM.
Take `C[C@]1(C(=O)NCCCNC(N)=O)COc2c1cc([C@@](O)(CNC(=O)c1cc(OC3CC3)c3ncccc3c1)C(F)(F)F)nc2-c1ccc(F)cc1` [Example 479]: the EC50 is under 200 nM in assay [1] and over 500 nM in assay [2].
For `CC(C)(CO)NC(=O)[C@@]1(C)COc2c1cc([C@@](O)(CNC(=O)c1cc(OC3CC3)c3ncccc3c1)C(F)(F)F)nc2-c1ccc(F)cc1` [Example 482], in that order: under 200 nM and over 500 nM.
For `CC(C)(O)CNC(=O)[C@@]1(C)COc2c1cc([C@@](O)(CNC(=O)c1cc(OC3CC3)c3ncccc3c1)C(F)(F)F)nc2-c1ccc(F)cc1` [Example 484], in that order: under 200 nM and under 500 nM.
For `C[C@]1(C(=O)NCCCO)COc2c1cc([C@@](O)(CNC(=O)c1cc(OC3CC3)c3ncccc3c1)C(F)(F)F)nc2-c1ccc(F)cc1` [Example 485], in that order: under 200 nM and under 500 nM.
Consider `C[C@]1(C(=O)NC[C@@H](O)CO)COc2c1cc([C@@](O)(CNC(=O)c1cc(OC3CC3)c3ncccc3c1)C(F)(F)F)nc2-c1ccc(F)cc1` [Example 492], for which the results for the concentration giving a half-maximal response (EC50) in assay [1] and in assay [2] were under 200 nM and over 500 nM, respectively.
In the case of `C[C@]1(C(=O)NC[C@H](O)CO)COc2c1cc([C@@](O)(CNC(=O)c1cc(OC3CC3)c3ncccc3c1)C(F)(F)F)nc2-c1ccc(F)cc1` [Example 493], the figures for the concentration giving a half-maximal response (EC50) in assay [1] and in assay [2] were under 200 nM and over 500 nM, respectively.
For `CC(C)(O)CNC(=O)[C@@]1(C)COc2c1cc([C@@](O)(CNC(=O)c1ccc3nc(N)sc3c1)C(F)(F)F)nc2-c1ccc(F)cc1` [Example 497], in that order: under 200 nM and over 500 nM.
For `COc1cc(C(=O)NC[C@](O)(c2cc3c(c(-c4ccc(F)cc4)n2)OC[C@]3(C)C(N)=O)C(F)(F)F)cc2c1OCCC2` [Example 508], in that order: over 200 nM and under 500 nM.
For `COc1cc(C(=O)NC[C@](O)(c2cc3c(c(-c4ccc(F)cc4)n2)OC[C@]3(C)C(N)=O)C(F)(F)F)cc2cc(F)cnc12` [Example 518], in that order: under 200 nM and over 500 nM.
